{"source": "patent US9920300B2", "about": "“Induction of germ cells from pluripotent cells” (The Board of Trustees of the Leland Stanford Junior …, priority 2009, dated 2018)", "key": {"mouse fetal germ cells": {"tested_on": "mouse fetal germ cells", "settings": "mouse fetal germ cells incubated with PAHs; cited from earlier work"}, "[1]": {"tested_on": "hESCs (H9) differentiating to germ cells", "assay": "qPCR gene expression in hESCs differentiated with BMPs in the presence of PAHs", "type": "cell-based, human", "experimental": "(§1) A federally approved hESC line (H9, XX) was maintained and differentiated as previously described (see methods of Kee, K., et al. (2006) Stem Cells & Differentiation 15: 831-837, the disclosure of which is incorporated herein). Briefly, adherent differentiation began upon the addition of differentiation media containing 20% FBS (Hyclone) and supplemented with Bone Morphogenetic Proteins (BMPs) -4, -7, and -8b (R&D) reconstituted in 4 mM HCl/0.1% BSA and used at 50 ng/ml. DMBA (Sigma), ANF (Sigma) and DMBA-DHD(MRI) were dissolved in DMSO at a 1:1000 dilution before adding to the media to the indicated final concentrations.\nTotal RNA was extracted using the RNeasy kit (Qiagen) and cDNA prepared with SuperScriptIII (Invitrogen) according to the manufacturer's protocols using 1 μg RNA. The cDNA was subjected to a pre-amplification using 1.25 μl out of 20 μl total cDNA, 1 μl Platinum Taq (Invitrogen), 5 μl CellsDirect 2× Reaction Buffer and 2.5 μl 0.2× Taqman (Applied Biosystem) probe mix. PCR cycle program for pre-amplification is: 95° C., 10 minutes; 95° C., 15 seconds and 60° C., 4 minutes for 14 cycles. Assays and samples are prepared according to the Fluidigm protocol and run on a 48×48 chip. BioMark (Fluidigm) program was used to obtain delta Ct value before imported into Excel file sheet to calculate delta-delta Ct value=2^(CtGene−CtHousekeeping genes). The delta-delta Ct value is then normalized to the control of each experiment to obtain the final normalized expression level. All delta-delta Ct values were calculated using four housekeeping genes (GAPDH, CTNNB1, ACTS, CENTRIN) except in experiment in FIG. 35, which only used GAPDH as housekeeping gene in a regular qPCR reaction in 7300 Real Time PCR System (Applied Biosystems)."}, "[2]": {"tested_on": "VASA:GFP+ and VASA:GFP− cells", "assay": "Caspase 3/7 apoptosis assay in FACS-sorted cells", "type": "cell-based, human", "settings": "1 μM DMBA-DHD", "experimental": "Single cell suspensions were prepared by incubating differentiated hESCs in Collagenase Type IV (1 mg/ml) for ten minutes, followed by ten minutes in TrypLE (Invitrogen). Cell pellet was resuspended in 0.5 ml differentiated media and passed through a 40 μm strainer. Cell suspensions were then subjected to FACS analysis with BD FACSAria system (BD). Cells were sorted for either VASA:GFP+ or VASA:GFP−. 1000 cells of each group were collected in 100 μl PBS and mixed with 100 μl of Caspase-Glo 3/7 reagent according to manufacturer protocol (Promega). Luminescence was measured after 1 hour of incubation at room temperature with Fluostar Optima (BMG)."}, "[3]": {"tested_on": "VASA:GFP+ PGCs from hESCs", "assay": "VASA:GFP reporter FACS of hESCs with DMBA-DHD and shAHR (Example 3)", "type": "cell-based, human", "experimental": "as §1\nshRNA was used to target AHR by the BLOCK-IT™ Inducible H1 Lentiviral RNAi System (Invitrogen). Double stranded oligos were generated, ligated into the pENTR vector and transfected into 293FT cells for initial screening. After 24 hours, RNA was harvested using the RNeasy kit and cDNA generated using SuperScriptIII with 1 μg total RNA input. The destination lentiviral vector was generated by recombining the pENTR vector with the pLenti4/BLOCK-it-DEST vector via the Gateway technology according to the manufacturer's protocol. Lentiviral supernatant carrying the pLenti4/BLOCK-it-DEST-shAHR vector was generated by co-transfection with 10 μg of each vector with 10 μg Vsvg and 15 μg Δ8.9 into 293FT cells grow on T175 plates. Supernatant was harvested after three days and either used immediately for transduction of hESCs or frozen at −80° C. until further usage. hESCs prepared for transduction were plated to 50% confluency on matrigel coated plates. Polybrene was added to the lentivirus supernatant for a final concentration of 8 μg/ml. […]\nSingle cell suspensions were prepared by incubating differentiated hESCs in Collagenase Type IV (1 mg/ml) for ten minutes, followed by ten minutes in TrypLE (Invitrogen). […] Luminescence was measured after 1 hour of incubation at room temperature with Fluostar Optima (BMG)."}, "DAZ": {"tested_on": "DAZ", "assay": "shRNA silencing of DAZ2-V5 and DAZ1-4 in 293T/293FT cells (Western)", "type": "cell-based, human", "settings": "for Protein level of DAZ2-V5: cotransfected", "experimental": "All shRNAs targeting human DAZL, DAZ and BOULE were constructed using the Block-iT inducible H1 lentiviral system (Invitrogen). All shRNAs were first introduced into pENTR/H1/TO vectors and transferred into pLenti4/BLOCK-iT-DEST destination vectors (see below for sequence information). When shRNA was tested in 293FT cells for its efficacy of silencing, transient transfection without selection was carried out and cell lysate was collected after 24 h. After specific shRNA was chosen, viral supernatant was prepared as described for pLVGV. Subsequently, the viral supernatant was used to transduce human ES cells on matrigel as described above, except with zeocin selection (2 μg/ml) for 3 days for stable integration of the shRNA vector into human ES cells. Overexpression vectors were constructed by inserting the EF1μ, promoter, and DAZL, DAZ2 or BOULE cDNA into the p2k7bias vectors, selected with blasticidin (2 μg ml^−1) in culture for 3 days to ensure stable integration and subjected for each differentiation experiment. shRNA sequences were:\ncDNA clones of DAZ1-4 (NCBI accession numbers: DAZ1, BC11492; DAZ2, NM_020363; DAZ3, BC113005; DAZ4, BC047480) were obtained from ATCC, PCR amplified, cloned into pENTR-D-TOPO vector, and subsequently cloned into pLenti4/TO/V5-DEST (Invitrogen). […] Co-transfection of the overexpression vector and shDAZ4 at the ratio of 1:1 and 1:2 into 293FT cells was carried out and all the lysates were collected after 24 h and loaded equally onto 10% SDS-PAGE gel."}, "DAZL and VASA": {"tested_on": "DAZL and VASA", "assay": "Western blot of DAZL and VASA in human ES cells after silencing/overexpression", "type": "cell-based", "settings": "human ES cells differentiated 14 days with BMPs", "experimental": "(§2) To collect the adherently differentiated cells, cells were washed with 3 ml cold PBS without Ca^2+ and Mg^2+, then scraped from the plate in 1 ml PBS plus 2× protease inhibitors (Complete Mini, Roche) and transferred immediately to a 1.5-ml tube on ice. The PBS cell suspension was then spun at 5,000 r.p.m. in a microcentrifuge for 3 min and the supernatant was discarded. The cell pellet was resuspended with 200 ul RIPA buffer (50 mM Tris, 150 mM NaCl, 0.5% sodium deoxycholate, 1% NP-40, 0.1% SDS, pH 8) plus 2× protease inhibitors (Complete Mini, Roche). The cell pellet suspension was pipetted rigorously at least 10 times, then vortexed for 30 sec. The suspension was again spun down for 3 min at the same speed. The supernatant was measured for protein concentration and denatured at a 1:1 ratio with 2× Laemmli buffer at 95° C. for 5 min, then loaded onto either a 10% or 12% SDS-PAGE gel. The SDS-PAGE gels were run at 150 V for 1 h and transferred to a PVDF membrane for 1 h at 100 V in CAPS buffer (10 mM CAPS, 10% methanol, pH 11). Transferred blots were blocked in 5% non-fat milk for 1 h at room temperature. […]"}, "DAZL": {"tested_on": "DAZL", "assay": "shRNA silencing of DAZL-V5 / DAZL:GFP cotransfected in 293T cells", "type": "cell-based, human", "experimental": "as §2"}, "[4]": {"tested_on": "VASA-GFP+ population of human ES cells (H9, HSF1)", "assay": "VASA-GFP reporter FACS of differentiated human ES cells (Example 1)", "type": "cell-based", "settings": "XX line (H9), 14 days", "experimental": "2.5 kb of human VASA upstream of the first codon was cloned into pENTR 5′-TOPO. EGFP was fused 1 kb downstream of the last codon of human VASA, and cloned into pENTR/D-TOPO. Cloned plasmids were recombined (Suter, D. M. et al. (2006) Stem Cells 24, 615-623) to create pLVGV. Lentiviral supernatant was produced, human ES cells were transduced overnight on matrigel in conditioned medium and subsequently selected with geneticin ([…]) for 7 days. Selected human ES cells were differentiated for the times indicated and harvested by brief treatment with collagenase IV and then TrypLEExpress (Invitrogen). The cell suspension was prepared in differentiation medium for FACS with a MoFlow or BD cell sorter.\nFour human ES cell lines were used in this study: HSF1 (XY), HSF6 (XX), H1 (XY) and H9 (XX). Undifferentiated cultures of human ES cells were maintained on irradiated MEFs as previously described in Kee, K. et al (2006) Stem Cells Dev. 15: 831-837. Briefly, all cultures were grown at 37° C. with 5% CO2 in knockout serum replacer (KSR) plus bFGF medium (knockout DMEM, supplemented with 20% knockout serum replacer, 1 mM L-glutamine, 0.1 mM nonessential amino acids, 0.1 mM 2-mercaptoethanol, and 4 ng ml^−1 recombinant human bFGF (bFGF, R&D systems)). […]"}}, "data": [{"compound": "O=c1cc(-c2ccccc2)oc2c1ccc1ccccc12", "note": "[ANF, α-napthoflavone]", "values": [{"measurement": "Fetal germ cell toxicity of PAHs", "setting": "mouse fetal germ cells", "result": "could be prevented"}, {"measurement": "Rescue of KDR and NES expression", "setting": "[1]; ANF added with DMBA-DHD", "result": "no rescue"}, {"measurement": "Expression of germ cell markers VASA, DAZL and PRDM1", "setting": "[1]; ANF added with DMBA-DHD, relative to DMBA-DHD addition alone", "result": "increased"}, {"measurement": "BAX expression", "setting": "[1]; ANF added with DMBA-DHD, relative to DMBA-DHD alone", "result": "decreased"}]}, {"compound": "Cc1c2ccccc2c(C)c2c3c(ccc12)C(O)C(O)C=C3", "note": "(centres unmarked) [DMBA-DHD, DMBA-3,4-dihydrodiol]", "values": [{"measurement": "Apoptosis activity (Caspase 3/7)", "setting": "[2]; VASA:GFP+ cells", "result": "significantly increased"}, {"measurement": "Apoptosis activity (Caspase 3/7)", "setting": "[2]; VASA:GFP− cells", "result": "not in the VASA:GFP− cells"}, {"measurement": "Number of PGCs out of 20,000 differentiated hESCs", "setting": "[3]; hESCs carrying shLacZ, 1 μM DMBA-DHD, control 908", "result": "~626"}, {"measurement": "Percentage of VASA:GFP+ PGCs", "setting": "[3]; hESCs carrying shLacZ, 14 days BMP induction, 1 μM DMBA-DHD, untreated control 4.5%", "result": 3.1, "unit": "%"}, {"measurement": "Reduction in human PGCs", "setting": "[3]; in the presence of DMBA-DHD", "result": "less than two-fold"}, {"measurement": "Potency relative to DMBA (decrease in germ cell specific gene expression)", "setting": "[1]; 0.1 μM DMBA-DHD comparable to 1 μM DMBA, 1 μM DMBA-DHD more potent than 10 μM DMBA", "result": "at least one log"}, {"measurement": "Expression of AFP and CDX2", "setting": "[1]; hESCs differentiated with BMPs", "result": "not reproducibly reduced"}, {"measurement": "Expression of somatic markers KDR and NES", "setting": "[1]; hESCs differentiated with BMPs", "result": "did not significantly alter"}, {"measurement": "Increase of BAX expression", "setting": "[1]; hESCs differentiated with BMPs, vs DMSO control", "result": 20, "unit": "fold"}]}, {"compound": "shDAZ1: shRNA 5′-GCAAATCCTGAGACTCCAAAC-3′, SEQ ID NO: 31", "values": [{"measurement": "Protein level of DAZ2-V5", "setting": "DAZ", "result": "significantly decreased"}]}, {"compound": "shDAZ3: shRNA 5′-GCCACGTCCTTTGGTAGTTAA-3′, SEQ ID NO: 33", "values": [{"measurement": "Protein level of DAZ2-V5", "setting": "DAZ", "result": "significantly decreased"}]}, {"compound": "shDAZ4: shRNA 5′-GCATTTCCTGCTTATCCAAAT-3′, SEQ ID NO: 34", "values": [{"measurement": "Silencing of DAZ1-4 proteins", "setting": "DAZ; 293FT cells", "result": "all four DAZ proteins were silenced"}, {"measurement": "Protein level of DAZ2-V5", "setting": "DAZ", "result": "significantly decreased"}]}, {"compound": "shDAZ5: shRNA 5′-GCATTTCCTGCTTATCCAAGT-3′, SEQ ID NO: 35", "values": [{"measurement": "Protein level of DAZ2-V5", "setting": "DAZ", "result": "significantly decreased"}]}, {"compound": "shDAZL2: shRNA 5′-GCATATCCTACTTACCCAAAT-3′, SEQ ID NO: 25", "values": [{"measurement": "Expression of DAZL and VASA", "setting": "DAZL and VASA", "result": "significantly reduced"}, {"measurement": "Silencing of DAZL:GFP fusion protein", "setting": "DAZL", "result": "most effective"}]}, {"compound": "shDAZL4: shRNA 5′-GCAGAAGATAGTAGAATCACA-3′, SEQ ID NO: 27", "values": [{"measurement": "VASA-GFP+ population", "setting": "[4]", "result": "reduced"}, {"measurement": "Expression of DAZL and VASA", "setting": "DAZL and VASA", "result": "significantly reduced"}, {"measurement": "Silencing of DAZL:GFP fusion protein", "setting": "DAZL", "result": "most effective silencer for DAZL"}]}]}
